Structures can show the parent of a compound that is named as a salt. Where two headings read alike, the source gives them in different places.
Tests used:
ddY female mouse = experiment: Effect of test compound on hypoxia (antihypoxic activity); type: in vivo; settings: po, read-out: Antihypoxic activity (%)
Method: A test compound dissolved in physiological saline (100 mg/kg) was orally administered to a ddY female mouse (5-6 weeks old, each group consisting of 10 mice). After 1 (or 30 minutes*) hour from the administration, each mouse was placed in a 300-ml glass chamber, and a gas mixture consisting of 4% of oxygen and 96% of nitrogen was passed through the chamber at a rate of 5 liters/min. A time from the start of gas passing to the death of each mouse was measured.
To a control mice group was orally administered only physiological saline.
The antihypoxic activity of the test compound was calculated from the following formula: [formula]

acetylcholinesterase = molecular target: T1, acetylcholinesterase (Mus musculus, UniProt P21836); experiment: Inhibitory activity for acetylcholinesterase (method of Ellman et al.); type: biochemical
T1 construct: a mouse cerebral homogenate (as an acetylcholinesterase source); from tissue; host or cells: mouse cerebrum (homogenate)
Method: A test was conducted in accordance with the method of Ellman et al. [Biochem. Pharmacol., vol. 7, pp. 88-95, 1961].
That is, acetylthiocholine (as a substrate) was added to a phosphate buffer solution containing 5,5'-dithiobis-(2-nitrobenzoic acid) (DTNB), a test compound and a mouse cerebral homogenate (as an acetylcholinesterase source). The resulting mixture was incubated, and the amount of the resulting 5-thio-2-nitrobenzoic acid was photometrically measured at 412 nm.
The inhibitory activity for acetylcholinesterase of the test compound was expressed by the inhibition (%) when the final concentration of the test compound was 10 µg/ml.

ddY male mice = experiment: Acute toxicity; type: in vivo, mouse; settings: 50 mg/kg intravenously, group of 3 ddY male mice
Text: A test compound dissolved in physiological saline was intravenously administered to a group of 3 ddY male mice (5-6 weeks old) to examine the acute toxicity of the test compound.

[1] = 100 mg/kg orally, placed in chamber (4% oxygen, 96% nitrogen) after 1 hour from the administration, survival time relative to control
[2] = final concentration of the test compound 10 µg/ml, mouse cerebral homogenate, read-out: Inhibition (%)
[3] = 0.5 h, 100 mg/kg orally, placed in chamber (4% oxygen, 96% nitrogen) after 30 minutes from the administration (values marked *), survival time relative to control

T1 sequence (P21836 32-614): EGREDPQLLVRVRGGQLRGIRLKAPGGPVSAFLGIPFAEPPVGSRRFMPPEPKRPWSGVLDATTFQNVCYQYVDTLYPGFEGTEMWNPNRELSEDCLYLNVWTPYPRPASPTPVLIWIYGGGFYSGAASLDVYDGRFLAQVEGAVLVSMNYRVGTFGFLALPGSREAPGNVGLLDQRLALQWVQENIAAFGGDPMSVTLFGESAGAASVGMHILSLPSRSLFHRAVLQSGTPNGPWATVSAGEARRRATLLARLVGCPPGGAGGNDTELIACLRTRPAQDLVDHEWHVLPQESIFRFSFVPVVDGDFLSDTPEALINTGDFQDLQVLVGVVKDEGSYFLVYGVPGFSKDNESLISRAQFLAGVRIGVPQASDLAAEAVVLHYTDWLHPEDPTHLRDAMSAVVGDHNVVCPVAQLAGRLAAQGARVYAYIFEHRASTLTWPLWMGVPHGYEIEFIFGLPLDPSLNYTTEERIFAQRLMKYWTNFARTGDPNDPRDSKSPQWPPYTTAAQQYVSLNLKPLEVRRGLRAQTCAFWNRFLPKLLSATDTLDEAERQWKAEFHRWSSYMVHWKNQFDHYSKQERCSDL

| Structure (SMILES) | response vs control in vivo at 100 mg/kg (ddY female mouse; [1]) | inhibition at 10 µg/mL (acetylcholinesterase; [2]) | Acute toxicity (ddY male mice) | response vs control in vivo at 100 mg/kg (ddY female mouse; [3]) | also measured |
| --- | --- | --- | --- | --- | --- |
| CN(C)CCOCC(O)c1ccc(Oc2ccccc2)cc1 (centres unmarked) [Compound No. 54, 2-[2-(N,N-dimethylamino)ethoxy]-1-[4-(4-phenyloxy)phenyl]ethanol hydrochloride] | 137% | 83% | no death case |  |  |
| OC(COCCN1CCCC1)c1ccccc1 (centres unmarked) [compound 6] |  | 13% | no death case |  |  |
| CC(OCCN(C)C)C(O)c1ccccc1 (centres unmarked) [compound 30] |  | 22% | no death case |  |  |
| CN(C)CCOCC(O)c1ccc(Cl)c(Cl)c1 (centres unmarked) [compound 34] | 221% | 26% | no death case |  |  |
| OC(COCCN1CCCCC1)c1ccc(Cl)c(Cl)c1 (centres unmarked) [compound 37] | 148% | 45% |  |  |  |
| CN(C)CCOCC(O)c1ccc(F)cc1 (centres unmarked) [compound 38] |  | 36% | no death case |  |  |
| CN(C)CCOCC(O)c1cccc([N+](=O)[O-])c1 (centres unmarked) [compound 40] |  | 26% | no death case |  |  |
| CN(C)CCOCC(O)c1cccc(OCc2ccccc2)c1 (centres unmarked) [compound 47] |  | 38% |  | 165% |  |
| COc1ccc(-c2ccc(C(O)COCCN(C)C)cc2)cc1 (centres unmarked) [compound 55] | 207% | 22% |  |  |  |
| CN(C)CCOCC(O)c1cccc(Cc2ccccc2)c1 (centres unmarked) [compound 58] | 133% | 45% |  |  |  |
| Cc1cccc(C(O)COCCC2CCN(Cc3ccccc3)CC2)c1 (centres unmarked) [compound 61] |  | 89% |  | 184% |  |
| OC(COCCC1CCN(Cc2ccccc2)CC1)c1ccc(F)cc1 (centres unmarked) [compound 62] | 127% | 78% |  |  |  |
| Cc1ccccc1-c1ccc(C(O)COCCN(C)C)cc1 (centres unmarked) [compound 65] |  | 62% | no death case |  |  |
| CN(C)CCOCC(O)c1ccc(Oc2ccc(F)cc2)cc1 (centres unmarked) [compound 67] |  | 90% | no death case | 247% |  |
| CN(C)CCOCC(O)c1ccc(Oc2ccccc2Cl)cc1 (centres unmarked) [compound 70] |  | 91% | no death case |  |  |
| COc1ccc(Oc2ccc(C(O)COCCN(C)C)cc2)cc1 (centres unmarked) [compound 71] | 147% | 87% | no death case |  |  |
| Cc1ccc(Oc2ccc(C(O)COCCN(C)C)cc2)cc1 (centres unmarked) [compound 83] |  | 93% |  | 177% |  |
| CN(C)CCOCC(O)c1ccc(OCc2ccncc2)cc1 (centres unmarked) [compound 86] |  | 50% |  | 130% |  |
| CN(C)CCOCC(O)c1ccc(CCc2ccccc2)cc1 (centres unmarked) [compound 89] |  | 44% |  | 156% |  |
| CN(C)CCOCC(O)c1ccc(OCc2cccc(Cl)c2)cc1 (centres unmarked) [compound 97] |  | 38% |  | 138% |  |

| Structure (SMILES) | response vs control in vivo at 100 mg/kg (ddY female mouse; [1]) | inhibition at 10 µg/mL (acetylcholinesterase; [2]) | Acute toxicity (ddY male mice) | response vs control in vivo at 100 mg/kg (ddY female mouse; [3]) | also measured |
| --- | --- | --- | --- | --- | --- |
| CN(C)CCOCC(O)c1cccc(NS(=O)(=O)c2ccccc2)c1 (centres unmarked) [compound 182] |  | 38% | no death case |  |  |
| CC(=O)OC(COCCN(C)C)c1cccc(OC(=O)Nc2cccc(Cl)c2)c1.Cl (centres unmarked) [compound 190, 1-acetoxy-1-[3-(3-chlorophenylcarbamoyloxy)phenyl]-2-[2-(N,N-dimethylamino)ethoxy]ethane hydrochloride] |  |  | no death case |  | inhibition at 10 µg/mL (acetylcholinesterase): 76% |
| CN(C)CCOCC(O)c1ccc(SCc2ccccc2)cc1 (centres unmarked) [compound 222, 1-(4-benzylthiophenyl)-2-[2-(N,N-dimethylamino)ethoxy]ethanol hydrochloride] |  | 83% |  |  | response vs control in vivo at 100 mg/kg (ddY female mouse; 0.5 h): 152% |
| CN(C)CCOCC(O)c1ccc(S(=O)(=O)Cc2ccccc2)cc1 (centres unmarked) [compound 223] |  | 74% |  | 149% |  |
| CN(C)CCOCC(O)c1ccc(-c2cccs2)cc1 (centres unmarked) [compound 224] | 155% | 36% |  |  |  |
| CN(C)CCOCC(O)c1cccc2ccccc12 (centres unmarked) [compound 228, 2-[2-(N,N-dimethylamino)ethoxy]-1-(1-naphthyl)ethanol hydrochloride] |  | 30% |  |  | response vs control in vivo at 100 mg/kg (ddY female mouse; 1 h): 144% |
| CN(C)CCOCC(O)c1ccc(Cl)c2ccccc12 (centres unmarked) [compound 230] | 177% | 25% |  |  |  |
| OC(COCCN1CCCCC1)c1cccc2ccccc12 (centres unmarked) [compound 237] | 149% | 44% |  |  |  |
| COc1ccc(C(O)COCCN(C)C)c2ccccc12 (centres unmarked) [compound 239] | 150% | 22% |  |  |  |
| CN(C)CCOCC(O)c1cccc2ccc(Cl)cc12 (centres unmarked) [compound 246] | 128% | 30% |  |  |  |
| CN(C)CCOCC(O)c1cccc2cccc(Cl)c12 (centres unmarked) [compound 247] | 124% | 26% |  |  |  |
| O=C(c1ccc(F)cc1)C1CCN(CCOCC(O)c2cccc3ccccc23)CC1 (centres unmarked) [compound 260, 2-{2-[4-(p-fluorobenzoyl)piperidin-1-yl]ethoxy}-1-(1-naphthyl)ethanol hydrochloride] |  | 43% |  |  | response vs control in vivo at 100 mg/kg (ddY female mouse; 1 h): 124% |
| OC(COCCN1CCN(Cc2ccccc2)CC1)c1cccc2ccccc12 (centres unmarked) [compound 302] |  | 38% |  | 182% |  |
| CN(C)CCOCC(O)c1ccc2ncccc2c1 (centres unmarked) [compound 319] |  | 30% | no death case |  |  |
| CN(C)CCCOCC(O)c1ccc2sccc2c1 (centres unmarked) [compound 336] |  | 21% |  | 224% |  |
| OC(COCCC1CCN(Cc2ccccc2)CC1)c1ccc2sccc2c1 (centres unmarked) [compound 342] |  | 67% |  | 157% |  |
| O=C(c1ccc(F)cc1)C1CCN(CCOCC(O)c2ccc3sccc3c2)CC1 (centres unmarked) [compound 350] |  | 42% |  | 147% |  |
| CNc1nc(Cl)c(C(O)COCCN(C)C)cc1F (centres unmarked) [compound 377] |  | 23% | no death case | 221% |  |
| CN(C)CCOCC(O)c1ccc([N+](=O)[O-])s1 (centres unmarked) [compound 405, 1-(5-nitro-2-thienyl)-2-[2-(N,N-dimethylamino)ethoxy]ethanol] |  | 59% |  | 137% |  |
